Where “and” joins values, the source holds several entries; their conditions need not be identical. Equal entries are not always repeated.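 Assay format: 96-well plates, 48-hour exposure. Definition used: TGI = concentration required for complete inhibition of growth.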
Assays:
Test in all cases: NCI tumour cell line growth inhibition, 48 h
HS 578T breast = test system: HS 578T breast
M14 melanoma = test system: M14 melanoma
NCI-H23 lung = test system: NCI-H23 lung
OVCAR-3 ovarian = test system: OVCAR-3 ovarian
PC-3 prostate = test system: PC-3 prostate
SF-295 CNS = test system: SF-295 CNS
SF-539 CNS = test system: SF-539 CNS
SR leukemia = test system: SR leukemia
SW-620 colon = test system: SW-620 colon
T-47D breast = test system: T-47D breast
KM12 colon = test system: KM12 colon

Structure (SMILES) | TGI (HS 578T breast) | TGI (M14 melanoma) | TGI (NCI-H23 lung) | TGI (OVCAR-3 ovarian) | TGI (PC-3 prostate) | TGI (SF-295 CNS) | TGI (SF-539 CNS) | TGI (SR leukemia) | TGI (SW-620 colon) | TGI (T-47D breast) | TGI (KM12 colon)
CCOP(=O)(OCC)/C(C#N)=C/c1ccc(-c2cc(C(F)(F)F)cc(C(F)(F)F)c2)o1 | > 100 µM | 23.1 µM | 31.1 µM | 21.6 µM | 24 µM | 11.8 µM | 35.3 µM | 26.8 µM | 28.2 µM | 40 µM | –
COc1ccc(CNc2nc(NC3CCCCC3)nc(NC3CCCCC3)n2)cc1 | > 100 µM | > 100 µM | 12.6 µM | > 100 µM | > 100 µM | > 100 µM | > 100 µM | – | 50 µM | 44 µM | 3.84 µM
Cc1n[n+](Cc2ccccc2)c2sc(N)nn12 | > 100 µM | > 100 µM | > 100 µM | > 100 µM | > 100 µM | > 100 µM | > 100 µM | – | > 100 µM | > 100 µM | > 100 µM
S=C1NCCN1C(=S)Nc1ccccc1 | > 100 µM | > 100 µM | > 100 µM | > 100 µM | – | > 100 µM | > 100 µM | > 100 µM | > 100 µM | > 100 µM | > 100 µM
C=CC1(CC[C@]2(c3ccc(OC)c(OC)c3)C=[N+]([O-])O[C@H](O[C@@H]3CCCC[C@H]3C(C)(C)c3ccccc3)C2)OCC(C)(C)CO1 | – | > 58.1 µM | > 100 µM | 25.1 µM | 28.3 µM | > 51.2 µM | 31.2 µM | > 38.9 µM | > 46.5 µM | > 46.7 µM | 41.4 µM
COC(=O)N[C@H](C(=O)NC(OCc1ccccc1)C1COC(C)(C)O1)C(C)O[Si](C)(C)C(C)(C)C (stereo partly drawn) | > 100 µM | > 100 µM | > 100 µM | – | > 100 µM | – | – | > 100 µM | > 100 µM | > 100 µM | –
O=c1[nH]nc(Cc2ccc(Cl)cc2)n1/N=C/c1cccs1 | – | > 100 µM | > 100 µM | > 100 µM | > 100 µM | 44 µM | > 100 µM | > 100 µM | > 100 µM | > 100 µM | > 100 µM
CCCCCCc1cc2cc(C(=O)Nc3ccc(F)cc3)c(=N)oc2cc1O | – | 13.2 µM | 4.6 µM | > 100 µM | 13.5 µM | > 100 µM | 4.82 µM | 8.23 µM | > 100 µM | – | 10.1 µM
Cc1ccc2c(c1)CC1(Cc3cccc(C)c3C1=O)C2=O (stereo not drawn) | > 100 µM | > 100 µM | > 100 µM | > 100 µM | > 100 µM | > 100 µM | > 100 µM | > 100 µM | > 100 µM | > 10 µM | –
COc1ccc(/C(Cl)=C(\C#N)c2ccc(OC)c(OC)c2)cc1OC | – | > 100 µM | > 100 µM | > 100 µM | > 100 µM | > 100 µM | > 100 µM | > 100 µM | > 100 µM | > 100 µM | –
C=C1CC[C@H]2C(=O)OC(c3ccoc3)C[C@]2(C)C/C=C\C=C/1C(=O)OC (stereo partly drawn) | > 25 µM | > 25 µM | > 25 µM | > 25 µM | > 25 µM | > 25 µM | > 25 µM | – | > 25 µM | – | > 25 µM
O=C(NCCN1CCOCC1)c1ccc(I)cc1 | > 100 µM | > 100 µM | > 100 µM | > 100 µM | > 100 µM | – | > 100 µM | > 100 µM | > 100 µM | – | –
Cc1ccc(NC(=O)C(=O)C2C(=O)NC(=O)NC2=O)cc1C | – | > 100 µM | > 100 µM | > 100 µM | – | > 100 µM | > 100 µM | > 100 µM | > 100 µM | – | > 100 µM
COc1cccc(-c2nc(-c3cnccn3)n(C/C=C/c3ccccc3)n2)c1 | > 10 µM | > 10 µM | > 10 µM | > 10 µM | > 10 µM | > 10 µM | > 10 µM | > 10 µM | > 10 µM | – | > 10 µM
COCn1cnc2c(=O)nc(SC)n(-c3ccccc3)c21 | > 100 µM | > 100 µM | > 100 µM | > 100 µM | – | > 100 µM | > 100 µM | – | > 100 µM | > 100 µM | > 100 µM
O=Cc1ccc(-c2ccc(-c3ccc(CO)s3)o2)s1 | 59.5 µM | > 70.6 µM | > 76.7 µM | – | > 100 µM | > 87.9 µM | > 81.6 µM | 2.74 µM | > 100 µM | 62.3 µM | > 100 µM
COc1ccc(/C=N/N=C(\N)NO)c(OC)c1C | – | – | 60.6 µM | > 100 µM | – | > 100 µM | 54.1 µM | > 100 µM | > 100 µM | – | > 100 µM
CCC1CC(O)c2c(O)c3c(c(O)c2C1O)C(=O)c1cccc(O)c1C3=O (stereo not drawn) (tested in a mixture with another compound) | 0.331 µM | 0.0434 µM and 0.0173 µM | 0.0795 µM and 0.186 µM | 0.0721 µM and 0.0312 µM | 0.0749 µM and 0.159 µM | – | 0.0957 µM and 0.0893 µM | 0.0605 µM and 0.0406 µM | 0.0707 µM and 0.128 µM | 0.18 µM and 0.0352 µM | 0.147 µM and 0.0175 µM
CC(=O)O[C@@]12CO[C@@H]1CC(O)[C@@]1(C)C(=O)[C@H](O)C3=C(C)C(O)C[C@@](O)(C(OC(=O)c4ccccc4)C12)C3(C)C (stereo partly drawn) | 1.18 µM | > 48.5 µM | > 41.9 µM | – | > 100 µM | > 51.1 µM | 2.16 µM | > 100 µM | > 100 µM | > 100 µM | > 89.2 µM
CC(NC(=O)Cc1ccccc1)NC(=O)C(C)C(=O)NCc1ccccc1 (stereo not drawn) | 83.3 µM | > 100 µM | > 100 µM | – | > 100 µM | > 100 µM | > 100 µM | > 100 µM | > 100 µM | > 100 µM | > 100 µM
CCCC(=O)[O-].CCCC(=O)[O-].NCCN.NCCN.[Co+3].[O-][Cl+3]([O-])([O-])[O-] | – | > 100 µM | > 100 µM | > 100 µM | – | > 100 µM | > 100 µM | – | > 100 µM | – | > 100 µM
O=C1OCC2OC(=O)c3cc(O)c(O)c(O)c3-c3c(O)c(O)c(O)c4c3C(=O)OC(C2OC(=O)c2cc(O)c(O)c(O)c2-c2c1cc(O)c(O)c2O)C1OC(=O)C2C4=C(O)C(=O)C23Oc2cc(O)c4c(c2[C@H]13)O[C@H](c1ccc(O)c(O)c1)[C@@H](O)C4 (stereo partly drawn) | > 100 µM | 29.6 µM | 47.3 µM | 83.4 µM | > 100 µM | 53.5 µM | – | > 100 µM | 53.5 µM | 74.8 µM | > 100 µM
